Source: the supplement of paper PMC10307832

Columns and labels:
Assay in all cases: relative viability (nuclei count vs DMSO), 5 days (fraction); higher = more cells survive
AZD1208 + Olaparib = compound: N[C@@H]1CCCN(c2c(/C=C3\SC(=O)NC3=O)cccc2-c2ccccc2)C1 [AZD1208] + O=C(c1cc(Cc2n[nH]c(=O)c3ccccc23)ccc1F)N1CCN(C(=O)C2CC2)CC1 [Olaparib] (partner 8 µM)
Outline: (§1)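 Values are medians from duplicate plates. Each reflects relative viability, defined as the nuclei count of treated wells over that of vehicle wells. Lung cancer cell lines in 1536-well plates were pin-tool dosed one day after seeding with one drug alone or with a fixed anchor-drug dose plus five library-drug doses (not always all listed) in √10 steps, then fixed, stained and imaged at 4× after 5 days.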

AZD1208 + Lapatinib = compound: N[C@@H]1CCCN(c2c(/C=C3\SC(=O)NC3=O)cccc2-c2ccccc2)C1 [AZD1208] + CS(=O)(=O)CCNCc1ccc(-c2ccc3ncnc(Nc4ccc(OCc5cccc(F)c5)c(Cl)c4)c3c2)o1 [Lapatinib] (partner 2 µM)
Outline: as §1

AZD1208 + Palbociclib = compound: N[C@@H]1CCCN(c2c(/C=C3\SC(=O)NC3=O)cccc2-c2ccccc2)C1 [AZD1208] + CC(=O)c1c(C)c2cnc(Nc3ccc(N4CCNCC4)cn3)nc2n(C2CCCC2)c1=O [Palbociclib] (partner 0.5 µM)
Outline: as §1

XMD14-99 + Tozasertib = compound: CN1CCN(CC1)C2=CC(=C(C=C2)NC3=NC(=C(S3)C(=O)C4=C(C=CC=C4Cl)Cl)N)OC [XMD14-99] + Cc1cc(Nc2cc(N3CCN(C)CC3)nc(Sc3ccc(NC(=O)C4CC4)cc3)n2)n[nH]1 [Tozasertib] (partner 0.1 µM)
Outline: as §1

UMC-11
relative viability (AZD1208 + Olaparib; first compound 0.08 µM): 0.27 | relative viability (AZD1208 + Olaparib; first compound 0.253 µM): 0.374 | relative viability (AZD1208 + Olaparib; first compound 0.8 µM): 0.333 | relative viability (AZD1208 + Olaparib; first compound 2.53 µM): 0.309 | relative viability (AZD1208 + Olaparib; first compound 8 µM): 0.264 | relative viability (AZD1208 + Lapatinib; first compound 0.08 µM): 0.819 | relative viability (AZD1208 + Lapatinib; first compound 0.253 µM): 0.739 | relative viability (AZD1208 + Lapatinib; first compound 0.8 µM): 0.679 | relative viability (AZD1208 + Lapatinib; first compound 2.53 µM): 0.487 | relative viability (AZD1208 + Lapatinib; first compound 8 µM): 0.466 | relative viability (AZD1208 + Palbociclib; first compound 0.08 µM): 0.293 | relative viability (AZD1208 + Palbociclib; first compound 0.253 µM): 0.281 | relative viability (AZD1208 + Palbociclib; first compound 0.8 µM): 0.291 | relative viability (AZD1208 + Palbociclib; first compound 2.53 µM): 0.308 | relative viability (AZD1208 + Palbociclib; first compound 8 µM): 0.262 | relative viability (XMD14-99 + Tozasertib; first compound 0.08 µM): 0.196 | relative viability (XMD14-99 + Tozasertib; first compound 0.8 µM): 0.227 | relative viability (XMD14-99 + Tozasertib; first compound 2.53 µM): 0.231 | relative viability (XMD14-99 + Tozasertib; first compound 8 µM): 0.23
